# Assay results taken from US12055549B2, “Methods of use of anti-TNFα antibodies” (UCB Biopharma SRL, priority 2015, dated 2024).
# Target: TNFα (Homo sapiens, UniProt P01375)
# Assay: SPR on Biacore 4000, immobilised soluble TNFα
# Format: binding
# Conditions: concentration of up to 100 μM
# Protocol: In another experiment, BIO8898 was tested against the immobilised soluble form of CD40L and the soluble form of TNFα by SPR on a Biacore 4000 machine.
# Sequence of TNFα (P01375 77-233 limits assumed): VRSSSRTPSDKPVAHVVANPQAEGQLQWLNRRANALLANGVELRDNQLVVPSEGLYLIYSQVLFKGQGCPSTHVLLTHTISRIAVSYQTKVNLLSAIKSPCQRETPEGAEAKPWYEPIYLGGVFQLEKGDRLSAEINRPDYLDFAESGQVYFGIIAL
smiles,measurement,value
O=C(NCc1cccc(-c2ccccc2)c1)c1cc(-c2cc(C(=O)NC(C(=O)O)C3CCCCC3)nc(C(=O)N3CCCC3CN3CCCC3)c2)cc(C(=O)N2CCCC2CN2CCCC2)n1 (stereo not shown) [BIO8898],binding to TNFα,found not to bind to TNFα
